This series deals with Anopheles stephensi. Briefly: Anopheles stephensi treated well plate contact test: knockdown and mortality. The series is classed as in vivo. An outline of the steps:
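Well surfaces coated with ethanol solution of compound at a defined concentration, alone or with 2 ppm TFNA-AM, then dried. Five non-blood-fed 2–5-day-old adult females per well, fed 10% sucrose; knockdown scored at 1 hour, mortality at 24 and 48 hours, replicate means reported.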

[1] abbreviates: test compound 0.2 ppm plus 2 ppm TFNA-AM, after 24 hours.
The mark [2] stands for this setting: test compound 0.2 ppm plus 2 ppm TFNA-AM, after 48 hours.
The mark [3] stands for this setting: test compound 0.2 ppm plus 2 ppm TFNA-AM, knockdown after 1 hour.
[4] abbreviates: test compound 2 ppm plus 2 ppm TFNA-AM, after 24 hours.
[5] abbreviates: test compound 2 ppm plus 2 ppm TFNA-AM, after 48 hours.
[6] abbreviates: test compound 2 ppm plus 2 ppm TFNA-AM, knockdown after 1 hour.
The mark [7] stands for this setting: test compound 20 ppm plus 2 ppm TFNA-AM, after 24 hours.
Where [8] appears, read: test compound 20 ppm plus 2 ppm TFNA-AM, after 48 hours.
Where [9] appears, read: test compound 20 ppm plus 2 ppm TFNA-AM, knockdown after 1 hour.
[10] abbreviates: test compound 200 ppm plus 2 ppm TFNA-AM, after 24 hours.
[11] abbreviates: test compound 200 ppm plus 2 ppm TFNA-AM, after 48 hours.
Setting [12] is: test compound 200 ppm plus 2 ppm TFNA-AM, knockdown after 1 hour.
[13] abbreviates: Anopheles stephensi, 24 h, read-out: mortality % 24, without TFNA-AM.
The mark [14] stands for this setting: Anopheles stephensi, 48 h, read-out: mortality % 48, without TFNA-AM.
Where [15] appears, read: Anopheles stephensi, test compound 0.2 ppm, without TFNA-AM, knockdown after 1 hour, read-out: Knock Down, without TFNA-AM.
Where [16] appears, read: Anopheles stephensi, test compound 2 ppm, without TFNA-AM, knockdown after 1 hour, read-out: Knock Down, without TFNA-AM.
The mark [17] stands for this setting: Anopheles stephensi, test compound 20 ppm, without TFNA-AM, knockdown after 1 hour, read-out: Knock Down, without TFNA-AM.
Where [18] appears, read: Anopheles stephensi, test compound 0.2 ppm, without TFNA-AM, after 24 hours, read-out: mortality % 24, without TFNA-AM.
The mark [19] stands for this setting: Anopheles stephensi, test compound 0.2 ppm, without TFNA-AM, after 48 hours, read-out: mortality % 48, without TFNA-AM.
[20] abbreviates: Anopheles stephensi, test compound 2 ppm, without TFNA-AM, after 24 hours, read-out: mortality % 24, without TFNA-AM.
The mark [21] stands for this setting: Anopheles stephensi, test compound 2 ppm, without TFNA-AM, after 48 hours, read-out: mortality % 48, without TFNA-AM.
Setting [22] is: Anopheles stephensi, test compound 20 ppm, without TFNA-AM, after 24 hours, read-out: mortality % 24, without TFNA-AM.
Where [23] appears, read: Anopheles stephensi, test compound 20 ppm, without TFNA-AM, after 48 hours, read-out: mortality % 48, without TFNA-AM.
The mark [24] stands for this setting: Anopheles stephensi, test compound 200 ppm, without TFNA-AM, after 24 hours, read-out: mortality % 24, without TFNA-AM.
Setting [25] is: Anopheles stephensi, test compound 200 ppm, without TFNA-AM, after 48 hours, read-out: mortality % 48, without TFNA-AM.
The mark [26] stands for this setting: Anopheles stephensi, test compound 200 ppm, without TFNA-AM, knockdown after 1 hour, adult females, read-out: Knock Down, without TFNA-AM.

Read-outs that look alike come from different tables or passages of the source.

In general, mortality refers to the percentage killed.

Take `CO/C=C(/C(=O)OC)c1ccccc1COc1cccc(C(F)(F)F)n1` [Picoxystrobin]: the “mortality % 24, with TFNA-AM” value under setting [1] is 30%; the “mortality % 24, with TFNA-AM” value under setting [4] turned out to be 80%; the “mortality % 24, with TFNA-AM” value under setting [7] is recorded as 100%; the “mortality % 24, with TFNA-AM” value under setting [10] was found to be 100%. Moreover, the “mortality % 48, with TFNA-AM” value by setting is: under setting [2], 20%; under setting [5], 80%; under setting [8], 100%; under setting [11], 100%. For the same compound, the “Knock Down, with TFNA-AM” value is, setting by setting: under setting [3], 100%; under setting [6], 100%; under setting [9], 100%; under setting [12], 100%. In addition, the “mortality % 24, without TFNA-AM” value runs as follows: (test compound 0.2 ppm, without TFNA-AM, after 24 hours) 0%; (test compound 2 ppm, without TFNA-AM, after 24 hours) 50%; (test compound 20 ppm, without TFNA-AM, after 24 hours) 90%; (test compound 200 ppm, without TFNA-AM, after 24 hours) 100%. Also, the “mortality % 48, without TFNA-AM” value by setting is: (test compound 0.2 ppm, without TFNA-AM, after 48 hours) 0%; (test compound 2 ppm, without TFNA-AM, after 48 hours) 0%; (test compound 20 ppm, without TFNA-AM, after 48 hours) 100%; (test compound 200 ppm, without TFNA-AM, after 48 hours) 100%. Besides, the “Knock Down, without TFNA-AM” value reads like this: (test compound 0.2 ppm, without TFNA-AM, knockdown after 1 hour) 0%; (test compound 2 ppm, without TFNA-AM, knockdown after 1 hour) 0%; (test compound 20 ppm, without TFNA-AM, knockdown after 1 hour) 30%; (test compound 200 ppm, without TFNA-AM, knockdown after 1 hour, adult females) 100%.

As to `CNC(=O)Oc1ccccc1OC(C)C` [Propoxur], the mortality at 0.02 ppm by setting is: under setting [13], 0%; under setting [14], 0%. In addition, the mortality at 0.2 ppm under setting [13] turned out to be 100% and the mortality at 0.2 ppm under setting [14] came out at 100%. Also, the mortality at 2 ppm by setting is: under setting [13], 100%; under setting [14], 100%. The mortality at 20 ppm runs as follows: under setting [13], 100%; under setting [14], 100%. The pest or weed control at 0.02 ppm (Anopheles stephensi, test compound 0.02 ppm, without TFNA-AM, knockdown after 1 hour, read-out: Knock Down, without TFNA-AM) was 0%. Moreover, the pest or weed control at 0.2 ppm under setting [15] was 0%. Also, the pest or weed control at 2 ppm under setting [16] was 100%. Moreover, the pest or weed control at 20 ppm under setting [17] is 100%. Also, the “mortality % 24, with TFNA-AM” value came to 40% (test compound 0.02 ppm plus 2 ppm TFNA-AM, after 24 hours); 100% under setting [1]; 100% under setting [4]; 100% under setting [7]. Further, the “mortality % 48, with TFNA-AM” value is 40% (test compound 0.02 ppm plus 2 ppm TFNA-AM, after 48 hours); 100% under setting [2]; 100% under setting [5]; 100% under setting [8]. In addition, the “Knock Down, with TFNA-AM” value by setting is: (test compound 0.02 ppm plus 2 ppm TFNA-AM, knockdown after 1 hour) 100%; under setting [3], 100%; under setting [6], 100%; under setting [9], 100%.

For `CC(COc1ccc(Oc2ccccc2)cc1)Oc1ccccn1` (stereo not shown) [Pyriproxyfen], the mortality at 0.2 ppm is, setting by setting: under setting [18], 0%; under setting [19], 0%. The pest or weed control at 0.2 ppm under setting [15] was 0%. Moreover, the mortality at 2 ppm was found to be 0% under setting [20] and 0% under setting [21]. Further, under setting [16], the pest or weed control at 2 ppm was determined as 0%. In addition, the mortality at 20 ppm runs as follows: under setting [22], 0%; under setting [23], 0%. Also, under setting [17], the pest or weed control at 20 ppm came out at 0%. In addition, the mortality at 200 ppm is, setting by setting: under setting [24], 0%; under setting [25], 0%. Further, the pest or weed control at 200 ppm under setting [26] came to 0%. Besides, the “mortality % 24, with TFNA-AM” value runs as follows: under setting [1], 60%; under setting [4], 60%; under setting [7], 60%; under setting [10], 80%. Also, the “mortality % 48, with TFNA-AM” value was 60% under setting [2], 60% under setting [5], 60% under setting [8] and 80% under setting [11]. In addition, the “Knock Down, with TFNA-AM” value is reported as 100% under setting [3], 100% under setting [6], 100% under setting [9] and 100% under setting [12].

Take `CC(c1ccc(C(F)(F)F)nc1)S(C)(=O)=NC#N` (stereo not shown) [Sulfoxaflor]: the mortality at 0.2 ppm amounted to 0% under setting [18] and 30% under setting [19]. Also, the pest or weed control at 0.2 ppm under setting [15] was 0%. Besides, the mortality at 2 ppm amounted to 0% under setting [20] and 60% under setting [21]. Moreover, the pest or weed control at 2 ppm under setting [16] came to 0%. The mortality at 20 ppm turned out to be 70% under setting [22] and 80% under setting [23]. Moreover, the pest or weed control at 20 ppm under setting [17] was 0%. Also, the mortality at 200 ppm under setting [24] was 80% and the mortality at 200 ppm under setting [25] was found to be 100%. Further, the pest or weed control at 200 ppm under setting [26] worked out at 20%. The “mortality % 24, with TFNA-AM” value is recorded as 0% under setting [1] and 90% under setting [10]. Further, the “mortality % 48, with TFNA-AM” value is, setting by setting: under setting [2], 20%; under setting [8], 90%; under setting [11], 100%. For the same compound, the “Knock Down, with TFNA-AM” value is, setting by setting: under setting [3], 100%; under setting [6], 100%; under setting [9], 100%; under setting [12], 100%.

Consider `NC(=O)c1cnccc1C(F)(F)F` [TFNA-AM, 4-(trifluoromethyl)pyridine-3-carboxamide], for which the mortality at 2 ppm runs as follows: (Anopheles stephensi, TFNA-AM 2 ppm alone, after 24 hours, read-out: mortality % 24, TFNA-AM alone) 18.3%; (Anopheles stephensi, TFNA-AM 2 ppm alone, after 48 hours, read-out: mortality % 48, TFNA-AM alone) 11.7%. Moreover, the “Knock Down, TFNA-AM alone” value (TFNA-AM 2 ppm alone, knockdown after 1 hour) is 75.5%.

`CCc1nn(C)c(C(=O)NCc2ccc(C(C)(C)C)cc2)c1Cl` [Tebufenpyrad]: the mortality at 0.2 ppm under setting [18] was 0% and the mortality at 0.2 ppm under setting [19] stood at 0%. In addition, under setting [15], the pest or weed control at 0.2 ppm amounted to 0%. Also, the mortality at 2 ppm under setting [20] worked out at 0% and the mortality at 2 ppm under setting [21] was 0%. Further, the pest or weed control at 2 ppm under setting [16] worked out at 0%. The mortality at 20 ppm was 13% under setting [22] and 20% under setting [23]. Further, under setting [17], the pest or weed control at 20 ppm was 0%. Besides, the mortality at 200 ppm under setting [24] stood at 73% and the mortality at 200 ppm under setting [25] was 67%. Moreover, under setting [26], the pest or weed control at 200 ppm came out at 0%. The “mortality % 24, with TFNA-AM” value reads like this: under setting [1], 0%; under setting [4], 27%; under setting [7], 80%; under setting [10], 100%. Also, the “mortality % 48, with TFNA-AM” value by setting is: under setting [2], 0%; under setting [11], 100%. The “Knock Down, with TFNA-AM” value under setting [3] is 93%; the “Knock Down, with TFNA-AM” value under setting [6] came out at 93%; the “Knock Down, with TFNA-AM” value under setting [9] stood at 93%; the “Knock Down, with TFNA-AM” value under setting [12] worked out at 93%.

Take `CN1COCN(Cc2cnc(Cl)s2)/C1=N\[N+](=O)[O-]` [Thiamethoxam]: the mortality at 0.2 ppm came out at 0% under setting [18] and 0% under setting [19]. Moreover, the pest or weed control at 0.2 ppm under setting [15] came out at 0%. Further, the mortality at 2 ppm reads like this: under setting [20], 40%; under setting [21], 40%. Further, the pest or weed control at 2 ppm under setting [16] was 0%. In addition, the mortality at 20 ppm was 60% under setting [22] and 40% under setting [23]. For the same compound, the pest or weed control at 20 ppm under setting [17] came out at 0%. The mortality at 200 ppm was 80% under setting [24] and 80% under setting [25]. In addition, the pest or weed control at 200 ppm under setting [26] stood at 0%. For the same compound, the “mortality % 24, with TFNA-AM” value reads like this: under setting [1], 20%; under setting [10], 100%. Besides, the “Knock Down, with TFNA-AM” value under setting [3] was found to be 100%; the “Knock Down, with TFNA-AM” value under setting [6] was found to be 100%; the “Knock Down, with TFNA-AM” value under setting [9] was found to be 100%; the “Knock Down, with TFNA-AM” value under setting [12] was found to be 100%. Further, the “mortality % 48, with TFNA-AM” value is given as 100% under setting [5], 100% under setting [8] and 100% under setting [11].
